These results are taken from article PMC8196580, “Identification of Kaurane-Type Diterpenes as Inhibitors of Leishmania Pteridine Reductase I” (Molecules, 2021).

The test system of assay [1] is L. major. The assay can be described thus: ChEMBL dataset of pIC50 values against L. major used for the RF model (Table S1). Note: call rule not given here. The format is cell-based, Leishmania major.
The subject of assay [2] is L. major. Set-up: method as in ChEMBL. The note with it: ref ChEMBL, cited from earlier work.
Where [3] appears, read: Active/Inactive class assigned to the ChEMBL pIC50 value for Random forest model construction, ref ChEMBL.
The mark [4] stands for this setting: ChemBL structures with pIC50 values used for Random forest model construction, L. major.
Setting [5] is: Active/Inactive class assigned to ChemBL structures for Random forest model construction (Table S1).
Where [6] appears, read: ChemBL structures with pIC50 values used for Random forest model construction (Table S1).

Molecules are shown by their SMILES. Where two headings read alike, the source gives them in different places.

On to `CC[C@H](CO)Nc1nc(NCc2cccc(OC)c2O)c2ncn(C(C)C)c2n1` [CHEMBL2349189], for which, in the assay with L. major [1] (setting [3]), the Outcome entry is given as “Inactive”. In addition, the “pIC50 Value” with L. major [2] (setting [4]) was 4.01.
Take `NCCOc1cc(C(=O)Nc2cc(OCCN)c3ccccc3n2)nc(C(=O)Nc2cc(OCCN)c3ccccc3n2)c1` [CHEMBL2349416]: the Outcome result in the assay with L. major [1] (setting [5]) is “Active”. Besides, the “pIC50 Value” in the assay with L. major [2] (setting [6]) is 5.30.
`CC(=O)C1=C(C)NC(=S)NC1c1ccccc1` (stereo not shown) [CHEMBL2359517]: the Outcome entry with L. major [1] (setting [5]) was “Active”. The “pIC50 Value” with L. major [2] (setting [6]) is listed as 5.50.
In the case of `COc1ccccc1C(=O)N/N=C/c1ccccn1` [CHEMBL2382029], in the assay on L. major [1] (setting [3]), the Outcome entry was “Inactive”. The “pIC50 Value” in the assay on L. major [2] (setting [4]) is on record as 4.22.
For `COc1ccccc1C(=O)N/N=C/c1ccncc1` [CHEMBL2382030], the Outcome result with L. major [1] (setting [3]) is “Inactive”. Besides, the “pIC50 Value” in the assay on L. major [2] (setting [4]) is given as 4.12.
Turning to `COC(=O)c1ccc(/C=N/NC(=O)c2ccccc2OC)cc1` [CHEMBL2382031], the Outcome result in the assay on L. major [1] (setting [3]) is “Inactive”. Moreover, in the assay with L. major [2] (setting [4]), the “pIC50 Value” is on record as 4.81.
As to `COc1ccccc1C(=O)N/N=C/c1ccc(Br)c(F)c1` [CHEMBL2382032], in the assay with L. major [1] (setting [3]), the Outcome result was “Inactive”. Also, in the assay with L. major [2] (setting [4]), the “pIC50 Value” was 4.11.
For `COc1ccccc1C(=O)N/N=C/c1cc(O)c(O)c(O)c1` [CHEMBL2382033], the Outcome entry with L. major [1] (setting [3]) is recorded as “Inactive”. Moreover, the “pIC50 Value” in the assay on L. major [2] (setting [4]) is reported as 4.50.
Turning to `COc1ccccc1C(=O)N/N=C/c1ccc(O)c(O)c1` [CHEMBL2382034], the Outcome result in the assay with L. major [1] (setting [5]) is given as “Active”. In addition, the “pIC50 Value” in the assay with L. major [2] (setting [6]) was 5.48.
For `COc1ccccc1C(=O)N/N=C/c1cc(O)cc(O)c1` [CHEMBL2382035], the Outcome result with L. major [1] (setting [3]) was “Inactive”. Besides, in the assay with L. major [2] (setting [4]), the “pIC50 Value” is recorded as 4.55.
On to `COc1ccccc1C(=O)N/N=C/c1cccc(O)c1` [CHEMBL2382036], for which, in the assay on L. major [1] (setting [3]), the Outcome entry is given as “Inactive”. The “pIC50 Value” with L. major [2] (setting [4]) is given as 4.48.
With `COc1ccccc1C(=O)N/N=C/c1ccccc1O` [CHEMBL2382037], in the assay on L. major [1] (setting [3]), the Outcome entry is “Inactive”. Besides, in the assay on L. major [2] (setting [4]), the “pIC50 Value” is listed as 4.45.
`COc1ccc(O)c(/C=N/NC(=O)c2ccccc2OC)c1` [CHEMBL2382038]: the Outcome result with L. major [1] (setting [3]) is given as “Inactive”. In the assay on L. major [2] (setting [4]), the “pIC50 Value” is on record as 4.00.
Regarding `COc1ccc(/C=N/NC(=O)c2ccccc2OC)cc1Br` [CHEMBL2382039], in the assay with L. major [1] (setting [3]), the Outcome result was “Active”. Besides, the “pIC50 Value” in the assay with L. major [2] (setting [4]) is recorded as 5.12.
As to `COc1ccc(/C=N/NC(=O)c2ccccc2OC)cc1OC` [CHEMBL2382040], in the assay on L. major [1] (setting [3]), the Outcome result was “Inactive”. Also, the “pIC50 Value” with L. major [2] (setting [4]) is on record as 4.88.
Turning to `COc1ccc(/C=N/NC(=O)c2ccccc2OC)cc1` [CHEMBL2382041], in the assay with L. major [1] (setting [3]), the Outcome result is on record as “Inactive”. Moreover, in the assay with L. major [2] (setting [4]), the “pIC50 Value” is recorded as 4.40.
With `COc1ccccc1C(=O)N/N=C/c1cccnc1` [CHEMBL2382042], the Outcome result with L. major [1] (setting [5]) was “Active”. Besides, the “pIC50 Value” in the assay with L. major [2] (setting [6]) was 5.71.
Turning to `COc1ccccc1C(=O)N/N=C/c1cccs1` [CHEMBL2382043], the Outcome result in the assay with L. major [1] (setting [5]) is “Active”. In addition, in the assay on L. major [2] (setting [6]), the “pIC50 Value” is listed as 5.60.
`COc1ccccc1C(=O)N/N=C/c1ccc([N+](=O)[O-])cc1` [CHEMBL2382044]: in the assay with L. major [1] (setting [3]), the Outcome result is on record as “Inactive”. Also, the “pIC50 Value” in the assay with L. major [2] (setting [4]) is reported as 4.50.
Regarding `COc1ccccc1C(=O)N/N=C/c1ccc(Cl)cc1` [CHEMBL2382045], the Outcome result with L. major [1] (setting [3]) is on record as “Inactive”. The “pIC50 Value” in the assay with L. major [2] (setting [4]) is listed as 4.16.
As for `COc1ccccc1C(=O)N/N=C/c1cccc(O)c1O` [CHEMBL2382046], in the assay on L. major [1] (setting [3]), the Outcome result is “Inactive”. Further, the “pIC50 Value” in the assay on L. major [2] (setting [4]) is recorded as 4.17.
In the case of `COc1ccccc1C(=O)N/N=C/c1cc(O)ccc1O` [CHEMBL2382047], in the assay with L. major [1] (setting [3]), the Outcome result is reported as “Inactive”. Moreover, the “pIC50 Value” in the assay on L. major [2] (setting [4]) is 4.46.
On to `COc1ccccc1C(=O)N/N=C/c1ccc(O)cc1O` [CHEMBL2382048], for which the Outcome entry in the assay with L. major [1] (setting [3]) is listed as “Inactive”. Also, in the assay with L. major [2] (setting [4]), the “pIC50 Value” is on record as 4.05.
In the case of `COc1ccccc1C(=O)N/N=C/c1ccc(O)cc1` [CHEMBL2382049], in the assay with L. major [1] (setting [3]), the Outcome result is “Inactive”. For the same compound, the “pIC50 Value” in the assay on L. major [2] (setting [4]) is recorded as 4.24.
`COc1ccc(/C=N/NC(=O)c2ccccc2OC)c(O)c1` [CHEMBL2382050]: the Outcome entry in the assay with L. major [1] (setting [3]) is “Inactive”. Further, the “pIC50 Value” with L. major [2] (setting [4]) is 4.88.
For the compound `COc1ccc(/C=N/NC(=O)c2ccccc2OC)cc1O` [CHEMBL2382051], in the assay on L. major [1] (setting [3]), the Outcome result was “Inactive”. Also, the “pIC50 Value” in the assay on L. major [2] (setting [4]) is listed as 4.34.
As for `COc1ccccc1C(=O)N/N=C/c1ccc(OC)c(O)c1I` [CHEMBL2382052], the Outcome result in the assay on L. major [1] (setting [3]) is reported as “Inactive”. Moreover, the “pIC50 Value” in the assay on L. major [2] (setting [4]) was 4.20.
Turning to `COc1cc(/C=N/NC(=O)c2ccccc2OC)cc(OC)c1` [CHEMBL2382053], the Outcome result in the assay with L. major [1] (setting [3]) is given as “Inactive”. Further, the “pIC50 Value” in the assay on L. major [2] (setting [4]) is given as 4.27.
Take `C/C=C/C=C/c1nc2ccccc2n2cccc12` [CHEMBL3260206]: the Outcome entry in the assay on L. major [1] (setting [5]) is “Active”. Besides, the “pIC50 Value” in the assay on L. major [2] (setting [6]) is reported as 5.33.
For `C/C=C/C=C/c1nc2cc(OC)ccc2n2cccc12` [CHEMBL3260207], the Outcome result in the assay on L. major [1] (setting [5]) was “Active”. Also, in the assay on L. major [2] (setting [6]), the “pIC50 Value” is given as 5.52.
Turning to `C/C=C/C=C/c1nc2ccc(OC)cc2n2cccc12` [CHEMBL3260208], the Outcome entry in the assay on L. major [1] (setting [5]) is “Active”. Moreover, the “pIC50 Value” in the assay on L. major [2] (setting [6]) is listed as 5.57.
With `C/C=C/C=C/c1nc2cccc(OC)c2n2cccc12` [CHEMBL3260209], the Outcome result in the assay on L. major [1] (setting [5]) is “Active”. Besides, the “pIC50 Value” in the assay with L. major [2] (setting [6]) is listed as 5.48.
As to `CCC/C=C/C=C/c1nc2ccccc2n2cccc12` [CHEMBL3260210], in the assay with L. major [1] (setting [5]), the Outcome result is recorded as “Active”. In the assay with L. major [2] (setting [6]), the “pIC50 Value” is 5.41.
Regarding `CCC/C=C/C=C/c1nc2cc(OC)ccc2n2cccc12` [CHEMBL3260211], in the assay on L. major [1] (setting [5]), the Outcome result is recorded as “Active”. The “pIC50 Value” in the assay with L. major [2] (setting [6]) is given as 5.55.
Consider `CCC/C=C/C=C/c1nc2ccc(OC)cc2n2cccc12` [CHEMBL3260212], for which, in the assay on L. major [1] (setting [3]), the Outcome entry was “Active”. In the assay with L. major [2] (setting [4]), the “pIC50 Value” is listed as 5.13.
`CCC/C=C/C=C/c1nc2cccc(OC)c2n2cccc12` [CHEMBL3260213]: the Outcome result in the assay on L. major [1] (setting [5]) is on record as “Active”. The “pIC50 Value” in the assay on L. major [2] (setting [6]) is recorded as 5.41.
On to `CCCC/C=C/C=C/c1nc2ccccc2n2cccc12` [CHEMBL3260214], for which the Outcome entry with L. major [1] (setting [5]) was “Active”. Besides, the “pIC50 Value” in the assay on L. major [2] (setting [6]) was 5.43.
As for `CCCC/C=C/C=C/c1nc2cc(OC)ccc2n2cccc12` [CHEMBL3260215], the Outcome result with L. major [1] (setting [5]) is “Active”. In addition, the “pIC50 Value” in the assay with L. major [2] (setting [6]) is reported as 5.60.
For the compound `CCCC/C=C/C=C/c1nc2ccc(OC)cc2n2cccc12` [CHEMBL3260216], the Outcome entry with L. major [1] (setting [5]) is given as “Active”. Also, in the assay with L. major [2] (setting [6]), the “pIC50 Value” is reported as 5.36.
Take `CCCC/C=C/C=C/c1nc2cccc(OC)c2n2cccc12` [CHEMBL3260217]: the Outcome entry in the assay with L. major [1] (setting [3]) is on record as “Active”. Besides, in the assay on L. major [2] (setting [4]), the “pIC50 Value” is reported as 5.24.
With `C/C=C/C=C/C=C/c1nc2ccccc2n2cccc12` [CHEMBL3260218], in the assay on L. major [1] (setting [5]), the Outcome entry is “Active”. The “pIC50 Value” in the assay on L. major [2] (setting [6]) was 5.92.
`C/C=C/C=C/c1nc2ccccc2n2ccc(OCC)c12` [CHEMBL3260219]: the Outcome entry with L. major [1] (setting [5]) was “Active”. For the same compound, the “pIC50 Value” in the assay with L. major [2] (setting [6]) was 5.82.
On to `Cc1cccc2nc(-c3ccc(C(=O)N/N=C/c4cccc(O)c4O)cc3)[nH]c12` [CHEMBL3317782], for which the Outcome entry in the assay with L. major [1] (setting [3]) is recorded as “Inactive”. The “pIC50 Value” with L. major [2] (setting [4]) is 4.42.
Consider `COc1ccc2c(c1)C=C(C(=O)/C=C/c1ccc(Cl)c(Cl)c1)CO2` [CHEMBL3329269], for which, in the assay on L. major [1] (setting [5]), the Outcome entry was “Active”. In the assay with L. major [2] (setting [6]), the “pIC50 Value” is reported as 6.00.
